Measured values from BindingDB's records for doi:10.1021/acschembio.6b00609 (University of Manchester, 2016).

These molecules were tested against Poly(ADP-ribose) glycohydrolase (Homo sapiens, UniProt Q86W56) (assay: PARG Biochemical Assay). Conditions: pH 7.4.
Method: Briefly, PARG in vitro assays were conducted in a total volume of 15 μL in a standard 384-well format. A total of 5 μL of human full length PARG (AstraZeneca), used at a final reaction concentration of 65 pM, was added to 5 μL of Bt-NAD ribosylated PARP1 substrate (AstraZeneca) at a final reaction concentration of 4.8 nM in assay buffer (50 mM Tris pH 7.4, 0.1 mg mL−1 BSA, 3 mM EDTA, 0.4 mM EGTA, 1 mM DTT, 0.01% Tween 20, 50 mM KCl). The reaction was incubated at RT for 10 min, and then 5 μL of detection reagent was added. Detection reagent consists of 42 nM mAb anti-6HIS XL665 (CisBio: 61HISXLB) and2.25 nM streptavidin europium cryptate (CisBio: 610SAKLB), both at 3× working stock concentrations (final concentrations of 14 nM and 0.75 nM, respectively), in detection buffer (50 mM Tris pH 7.4, 0.1 mg mL−1 BSA and 100 mM KF). Following incubation at RT for 60 min in the dark, TR-FRET signal was measured at λEx 340 nm and λEm 665 nm and λEm

Chain of Poly(ADP-ribose) glycohydrolase (Q86W56 whole entry): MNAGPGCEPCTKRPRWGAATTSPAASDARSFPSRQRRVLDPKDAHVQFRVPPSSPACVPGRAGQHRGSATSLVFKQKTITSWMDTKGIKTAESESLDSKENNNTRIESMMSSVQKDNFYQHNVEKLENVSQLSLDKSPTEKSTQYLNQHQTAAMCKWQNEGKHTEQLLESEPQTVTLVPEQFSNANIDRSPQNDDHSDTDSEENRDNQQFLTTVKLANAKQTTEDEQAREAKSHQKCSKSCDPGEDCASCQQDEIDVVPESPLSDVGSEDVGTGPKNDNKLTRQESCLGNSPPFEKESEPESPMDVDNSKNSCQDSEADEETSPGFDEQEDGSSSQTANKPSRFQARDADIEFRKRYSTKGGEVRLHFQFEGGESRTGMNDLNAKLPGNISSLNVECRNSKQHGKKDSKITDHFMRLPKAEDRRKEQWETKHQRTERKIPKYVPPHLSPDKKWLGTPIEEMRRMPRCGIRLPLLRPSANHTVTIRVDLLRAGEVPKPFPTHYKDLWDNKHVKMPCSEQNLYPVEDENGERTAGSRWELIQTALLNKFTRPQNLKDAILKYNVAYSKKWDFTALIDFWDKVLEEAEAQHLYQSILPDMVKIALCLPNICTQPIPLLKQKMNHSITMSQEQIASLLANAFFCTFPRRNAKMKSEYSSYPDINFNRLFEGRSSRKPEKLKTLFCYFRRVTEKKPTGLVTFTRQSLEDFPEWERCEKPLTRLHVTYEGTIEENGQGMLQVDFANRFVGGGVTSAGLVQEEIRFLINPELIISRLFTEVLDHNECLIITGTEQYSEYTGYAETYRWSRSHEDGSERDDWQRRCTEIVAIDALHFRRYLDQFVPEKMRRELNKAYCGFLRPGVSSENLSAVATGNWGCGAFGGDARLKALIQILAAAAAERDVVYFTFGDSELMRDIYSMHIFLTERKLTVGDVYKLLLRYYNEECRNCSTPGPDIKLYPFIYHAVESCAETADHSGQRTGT

Structure (SMILES) | IC50
CC(C)(C)NS(=O)(=O)c1ccc2c(c1)C(=O)c1ccccc1C2=O [PDD00013907 (1)] | > 60000 nM
Cc1nc(C)c(Cn2c(=O)n(-c3ncns3)c3cc(S(=O)(=O)N(C)C4(C)CC4)ccc32)s1 [PDD00031705 (7)] | > 60000 nM
Cc1cc(Cn2c(=O)n(Cc3cnc(C)s3)c(=O)c3cc(S(=O)(=O)N(C)C4(C)CC4)ccc32)n(C)n1 [PDD00031704 (6)] | > 60000 nM
Cc1nc(C)c(Cn2c(=O)n(-c3ncns3)c3cc(S(=O)(=O)NC4(C)CC4)ccc32)s1 [PDD00017238 (5)] | 40 nM
Cc1cc(Cn2c(=O)n(Cc3cnc(C)s3)c(=O)c3cc(S(=O)(=O)NC4(C)CC4)ccc32)n(C)n1 [PDD00017273 (4)] | 26 nM
